This is an account of results in patent publication US6110955A, “Metabolically stabilized oxyalkylene esters and uses thereof” (Beacon Laboratories, Inc., priority 1997, dated 2000).

Structures are written as SMILES. Entries after “also recorded” stand apart in the source; their conditions may differ.

Data set [1] relates to nuclear deacetylase(s). As to conditions: cited from earlier work.
Data set [2] has as its system B16 melanoma. As to conditions: cited from earlier work.
Data set [3] relates to cancer patients. As to conditions: clinical trials; cited from earlier work.
Data set [4] deals with IMR-32. The data set can be described thus: Clonogenicity in soft agar (growth inhibition). Type of data set: cell-based, human. The protocol: (§1) Inhibition of cancer cell growth in agar culture--clonogenicity was tested using cell lines as follows:
(§2) Cells were harvested, washed in complete media, and counted.
(§3) After overnight culture, AB or α-methyl-4-(2-methylpropyl)-benzeneacetyloxymethyl butyrate was added at the indicated concentration. The control cells received media alone.

Data set [5] has as its system LA1-5S. The data set can be described thus: Clonogenicity in soft agar (growth inhibition). It is filed as cell-based, human. How it is done:
as §1, §2, §3

The test system of data set [6] is NBAS-5. Description: Clonogenicity in soft agar (growth inhibition). Type of data set: cell-based, human. How it is done: as §1, §2, §3
The test system of data set [7] is NBL-S. The data set can be described thus: Clonogenicity in soft agar (growth inhibition). It is filed as cell-based, human. How it is done: as §1, §2, §3
The test system of data set [8] is NBL-W-N. The data set can be described thus: Clonogenicity in soft agar (growth inhibition). Type of data set: cell-based, human. The protocol: as §1, §2, §3
Data set [9] concerns NGP. The data set can be described thus: Clonogenicity in soft agar (growth inhibition). It is filed as cell-based, human. How it is done:
as §1, §2, §3

Data set [10] concerns SK-N-MC. Description: Clonogenicity in soft agar (growth inhibition). It is filed as cell-based, human. The protocol:
as §1, §2, §3

Data set [11] concerns SK-N-SH. The data set can be described thus: Clonogenicity in soft agar (growth inhibition). Type of data set: cell-based, human. The protocol: as §1, §2, §3
Data set [12] concerns SMS-KAN. The data set can be described thus: Clonogenicity in soft agar (growth inhibition). Type of data set: cell-based, human. How it is done: as §1, §2, §3
Data set [13] has as its system SMS-KCN. The data set can be described thus: Clonogenicity in soft agar (growth inhibition). Type of data set: cell-based, human. The protocol:
as §1, §2, §3

The subject of data set [14] is human neuroblastoma cell lines. Description: Clonogenicity across the neuroblastoma cell lines (summary). It is filed as cell-based. How it is done: as §1, §2, §3
Data set [15] concerns CFPAC. The data set can be described thus: Inhibition of cancer cell growth, sulforhodamine B (SRB) method. Type of data set: cell-based. As to conditions: Homo sapiens. The protocol: (§4) Inhibition of cancer cell growth was measured by the sulforhodamine B (SRB) method as described by Monks et al., J. Nat. Canc. Inst., (1991), 83: 757-766, incorporated herein in its entirety. The SRB assay is recognized by the National Institute for Cancer (NCI) as a reliable screen for anticancer drugs and is used by the NCI for this purpose. […] (FIGS. 3A-3D).

The subject of data set [16] is LOX IMVI. The description is as above. It is filed as cell-based. As to conditions: Homo sapiens. The protocol:
as §4

Data set [17] deals with MCF7. The data set is described as above. Type of data set: cell-based. As to conditions: Homo sapiens. The protocol: as §4
Data set [18] has as its system OVCAR-5. Described as above. It is filed as cell-based. As to conditions: Homo sapiens. How it is done: as §4
In data set [19] the test system is human pancreatic, ovarian, breast carcinoma and melanoma cell lines. Description: Inhibition of cancer cell growth, SRB method (summary over cell lines). Type of data set: cell-based. As to conditions: compared with AB. The protocol: as §4
A general note: In SRB staining, fixed cells bind dye roughly in proportion to their protein.

Data set [20] in a line: In vitro stability in human blood. As to conditions: whole human blood, radiolabelled, read-out: calculated half time. Type of data set: in vitro ADME. The protocol:
Radiolabelled Compound 1 (5 μCi) was added to 1 mL of whole human blood and allowed to stand for various times. The samples were quenched with acetonitrile and prepared as previously described.

For data set [21], the system named is human colon carcinoma, leukemia and retinoblastoma cell lines. As to conditions: in vitro; cited from earlier work.
Data set [22] deals with primary and immortalized cell lines. As to conditions: cited from earlier work.
Data set [23] concerns mitochondrial β-oxidation of fatty acids. As to conditions: cited from earlier work.

`CCCC(=O)O` [BA, Butyric acid]: the “effect on nuclear deacetylase(s)” value in data set [1] is “inhibition of nuclear deacetylase(s), resulting in hyperacetylation of histones H3 and H4”. Further, the oncogene expression entry in data set [2] is “decrease in the expression of c-myc and H-ras oncogenes in B16 melanoma”. Further, in [3], the “efficacy in cancer patients” value is listed as “minimal or transient efficacy”.

In general, IC50 refers to the concentration at which inhibition is half-maximal. A higher IC50 goes with weaker potency. One may read the IC90 as the concentration needed for an effect of 90%. By inhibition is commonly meant the drop in the measured response relative to a control, in per cent. High values mean strong suppression, low ones little suppression. With `CCCC(=O)OCOC(=O)C(C)c1ccc(CC(C)C)cc1` (stereo not drawn) [Compound 1, α-methyl-4-(2-methylpropyl)-benzeneacetyloxymethyl butyrate], the IC50 amounted to 15 µM in data set [4] (Homo sapiens, IMR-32); 29 µM in [5] (Homo sapiens); 15 µM in data set [6] (Homo sapiens, NBAS-5); 24 µM in data set [7] (Homo sapiens); 46 µM in data set [8] (Homo sapiens); 15 µM in data set [9] (Homo sapiens). The IC50 in data set [10] (Homo sapiens) was determined as 24 µM; in data set [11] (Homo sapiens), 16 µM; in [12] (Homo sapiens) it was 77 µM; in data set [13] (Homo sapiens), 118 µM. Further, the IC90 is 32 µM in data set [4] (Homo sapiens, IMR-32); 84 µM in data set [5] (Homo sapiens); 30 µM in data set [6] (Homo sapiens, NBAS-5); 61 µM in [7] (Homo sapiens); 134 µM in [8] (Homo sapiens); 87 µM in data set [9] (Homo sapiens). Further, the IC90 in data set [10] (Homo sapiens) worked out at 148 µM; in data set [11] (Homo sapiens), 39 µM; in [12] (Homo sapiens), 289 µM. In addition, the activity at 10 µM was determined as 71 ± 10% in [4] (Homo sapiens, IMR-32, 10 μM, read-out: clones relative to media-treated control cultures); 76 ± 7% in data set [6] (Homo sapiens, NBAS-5, 10 μM, read-out: clones relative to media-treated control cultures); 66% in data set [11] (Homo sapiens, 10 μM, read-out: clones relative to media-treated control cultures). The activity at 20 µM in [4] (Homo sapiens, IMR-32, 20 μM, read-out: clones relative to media-treated control cultures) was 46 ± 8%; in data set [6] (Homo sapiens, NBAS-5, 20 μM, read-out: clones relative to media-treated control cultures), 27 ± 15%; in data set [11] (Homo sapiens, 20 μM, read-out: clones relative to media-treated control cultures) it was 50%. For the same molecule, the activity at 50 µM in data set [4] (Homo sapiens, IMR-32, 50 μM, read-out: clones relative to media-treated control cultures) was 3 ± 1%; in [6] (Homo sapiens, NBAS-5, 50 μM, read-out: clones relative to media-treated control cultures), 3%; in data set [11] (Homo sapiens, 50 μM, read-out: clones relative to media-treated control cultures), 5%. Further, the activity at 100 µM in [4] (Homo sapiens, IMR-32, 100 μM, read-out: clones relative to media-treated control cultures) stood at 0%; in data set [6] (Homo sapiens, NBAS-5, 100 μM, read-out: clones relative to media-treated control cultures) it was 0%; in [11] (Homo sapiens, 100 μM, read-out: clones relative to media-treated control cultures), 1%. For the same molecule, the activity at 250 µM is 0% in [4] (Homo sapiens, IMR-32, 250 μM, read-out: clones relative to media-treated control cultures); 0% in data set [6] (Homo sapiens, NBAS-5, 250 μM, read-out: clones relative to media-treated control cultures); 0% in data set [11] (Homo sapiens, 250 μM, read-out: clones relative to media-treated control cultures). Also, the “AB/Compound 1 (IC50 ratio)” value was 59 in data set [4] (IMR-32); 56 in data set [5]; 55.53 in data set [6] (NBAS-5); 29.2 in data set [7]; 10.6 in [8]; 67.9 in data set [9]. In addition, the “AB/Compound 1 (IC50 ratio)” value in data set [10] is reported as 9; in [11], 63.37; in data set [12] it was 14.7; in data set [13], 15.86. For the same molecule, the “AB/Compound 1 (IC90 ratio)” value in data set [4] (IMR-32) stood at 111437; in data set [5], 31.8; in [6] (NBAS-5), 434; in [7], 32.8; in [8], 22.9; in data set [9], 18.46. The “AB/Compound 1 (IC90 ratio)” value in data set [10] is 887; in data set [11], 87; in [12], 7.2. Further, the “inhibition of clonogenicity (in words)” value in data set [14] was “dose-dependent manner”. Moreover, the “sensitivity / potency relative to AB (in words)” value in [14] (compared with AB) is listed as “mostly an order of magnitude more sensitive; also recorded: significantly more potent tumor cell clonogenicity inhibitor than AB”. The “ratio between the IC50 of AB/Compound 1, "maiden" value” in [14] (over the cell lines) is reported as 16. Further, the “ratio between the IC50 of AB/Compound 1, range” value in data set [14] (over the cell lines) is 7-63 fold. Further, the “ratio between the IC90 of AB/Compound 1, "maiden" value” in data set [14] (over the cell lines) is reported as 32. In data set [14] (over the cell lines), the “ratio between the IC90 of AB/Compound 1, range” value is given as 7-434. For the same molecule, the inhibition at 31.25 pM in data set [15] (dosage 0.03125 nM) came out at 0%; in [16] (dosage 0.03125 nM) it was 0%; in data set [17] (MCF7, dosage 0.03125 nM), 0%; in [18] (OVCAR-5, dosage 0.03125 nM), 0%. In addition, the inhibition at 62.5 pM is 0.1% in data set [15] (dosage 0.06250 nM); 0.1% in data set [16] (dosage 0.06250 nM); 0% in [17] (MCF7, dosage 0.06250 nM); 0.3% in data set [18] (OVCAR-5, dosage 0.06250 nM). For the same molecule, the inhibition at 0.000125 µM is 1.1% in data set [15] (dosage 0.12500 nM); 1.5% in data set [16] (dosage 0.12500 nM); 0% in data set [17] (MCF7, dosage 0.12500 nM); 0.5% in data set [18] (OVCAR-5, dosage 0.12500 nM). Further, the inhibition at 0.00025 µM in data set [15] (dosage 0.25000 nM) was 0%; in data set [16] (dosage 0.25000 nM), 0%; in data set [17] (MCF7, dosage 0.25000 nM), 1.1%; in data set [18] (OVCAR-5, dosage 0.25000 nM), 0%. Moreover, the inhibition at 0.0005 µM in data set [15] (dosage 0.50000 nM) was 93.3%; in data set [17] (MCF7, dosage 0.50000 nM), 57.8%; in data set [18] (OVCAR-5, dosage 0.50000 nM) it was 0.9%. The inhibition at 0.001 µM worked out at 94.9% in [15] (dosage 1.00000 nM); 94.9% in data set [16] (dosage 1.00000 nM); 99.3% in [17] (MCF7, dosage 1.00000 nM); 39.7% in data set [18] (OVCAR-5, dosage 1.00000 nM). Also, the inhibition at 0.002 µM in [15] (dosage 2.00000 nM) was found to be 96%; in [16] (dosage 2.00000 nM), 96%; in data set [17] (MCF7, dosage 2.00000 nM) it was 98.9%; in data set [18] (OVCAR-5, dosage 2.00000 nM), 99.8%. In addition, the inhibition at 0.004 µM in data set [15] (dosage 4.00000 nM) worked out at 97.4%; in data set [16] (dosage 4.00000 nM) it was 97.4%; in data set [17] (MCF7, dosage 4.00000 nM), 98.7%; in data set [18] (OVCAR-5, dosage 4.00000 nM) it was 95.1%. In data set [19], the “greater activity than that of AB” value is given as “at least 100 fold”. Moreover, in [20], the half-life is roughly 20.8 min.

Take `CCCC(=O)[O-].[Na+]` [SB, sodium butyrate]: the apoptosis entry in data set [21] was “produce apoptosis in vitro in human colon carcinoma, leukemia and retinoblastoma cell lines”.

Turning to `CCCC(=O)OCC(COC(=O)CCC)OC(=O)CCC` [Tributyrin], the “expression of a reporter gene” value in [22] was “enhance the expression of a reporter gene in primary and immortalized cell lines”.

In the case of `O=C(O)CCCCCCNC1c2ccccc2CCc2ccccc21` [aminetepine], in data set [23], the “mitochondrial β-oxidation of fatty acids” value was “decrease mitochondrial β-oxidation of fatty acids”.

As to `CC(C)Cc1ccc(C(C)C(=O)O)cc1` (stereo not shown) [ibuprofen], the “mitochondrial β-oxidation of fatty acids” value in data set [23] was “decrease mitochondrial β-oxidation of fatty acids”.

On to `O=C(O)c1ccccc1O` [salicylic acid], for which, in data set [23], the “mitochondrial β-oxidation of fatty acids” value was “decrease mitochondrial β-oxidation of fatty acids”.

Take `CN(C)C1C(=O)C(C(N)=O)=C(O)C2(O)C(=O)C3=C(O)c4c(O)cccc4C(C)(O)C3CC12` (stereo not shown) [tetracycline]: the “mitochondrial β-oxidation of fatty acids” value in data set [23] was “decrease mitochondrial β-oxidation of fatty acids”.

On to `CN1c2ccccc2C(NCCCCCCC(=O)O)c2ccc(Cl)cc2S1(=O)=O` (stereo not shown) [tianeptine], for which, in [23], the “mitochondrial β-oxidation of fatty acids” value is on record as “decrease mitochondrial β-oxidation of fatty acids”.

In the case of `CCCC(CCC)C(=O)O` [valproic acid], the “mitochondrial β-oxidation of fatty acids” value in data set [23] is “decrease mitochondrial β-oxidation of fatty acids”.
